# In patent US9169260B2 (MERCK SHARP & DOHME CORP., priority 2011, dated 2015):
# Target: GST tagged IRAK-4 (Homo sapiens (Human), UniProt Q9NWZ3)
# Assay: IRAK-4 Kinase Assay (IMAP fluorescence polarization)
# Assay type: biochemical
# Conditions: 100 μM ATP, 30 minutes at 25° C.
# Summary of the method: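 Activity was read by IMAP fluorescence polarization, where phosphopeptide binding to M(III) nanoparticles raises FP. The 30-minute, 25° C reaction used 100 μM ATP, 100 nM RP7030 substrate and 0.5 nM GST-IRAK-4 in pH 7.2 Tris buffer with MgCl2, DTT and Tween 20.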
# GST tagged IRAK-4, sequence (Q9NWZ3 whole entry): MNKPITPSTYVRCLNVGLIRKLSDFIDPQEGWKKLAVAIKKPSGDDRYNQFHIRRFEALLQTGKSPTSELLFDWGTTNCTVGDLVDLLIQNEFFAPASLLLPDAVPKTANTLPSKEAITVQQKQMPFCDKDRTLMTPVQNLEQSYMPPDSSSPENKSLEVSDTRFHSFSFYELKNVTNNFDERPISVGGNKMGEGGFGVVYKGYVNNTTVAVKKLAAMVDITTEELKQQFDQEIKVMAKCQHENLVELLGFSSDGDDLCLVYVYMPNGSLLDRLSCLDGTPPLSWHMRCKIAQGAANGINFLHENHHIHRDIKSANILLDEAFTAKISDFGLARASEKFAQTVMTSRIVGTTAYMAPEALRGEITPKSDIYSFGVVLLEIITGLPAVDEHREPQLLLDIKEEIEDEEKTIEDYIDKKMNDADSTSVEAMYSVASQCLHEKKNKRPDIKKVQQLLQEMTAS
SMILES,IC50,IC50 (μM)
"Cc1ccc(-n2nc(C3CCN(S(=O)(=O)c4sc(C)nc4C)CC3)cc2NC(=O)c2cnn3cccnc23)cc1 [Example 364, N-[3-{1-[(2,4-dimethyl-1,3-thiazol-5-yl)sulfonyl]piperidin-4-yl}-1-(4-methylphenyl)-1H-pyrazol-5-yl]pyrazolo[1,5-a]pyrimidine-3-carboxamide]",< 0.1 µM,
"CNS(=O)(=O)c1ccc(-c2cc(NC(=O)c3cnn4cccnc34)n(-c3ccc(C4CC4)cc3F)n2)cc1 [Example 101, N-(1-(4-cyclopropyl-2-fluorophenyl)-3-(4-(N-methylsulfamoyl)phenyl)-1H-pyrazol-5-yl)pyrazolo[1,5-a]pyrimidine-3-carboxamide]",< 0.1 µM,
"Cc1ccc(-n2nc(C3CCS(=O)(=O)CC3)cc2NC(=O)c2cnn3cccnc23)cc1 [Example 98, N-(3-(1,1-dioxidotetrahydro-2H-thiopyran-4-yl)-1-(p-tolyl)-1H-pyrazol-5-yl)pyrazolo[1,5-a]pyrimidine-3-carboxamide]",,< 1 µM
"Cc1ccc(-n2nc(C3CCN(C4CCC(F)(F)CC4)CC3)cc2NC(=O)c2cnn3cccnc23)cc1 [Example 259, N-{3-[1-(4,4-difluorocyclohexyl)piperidin-4-yl]-1-(4-methylphenyl)-1H-pyrazol-5-yl}pyrazolo[1,5-a]pyrimidine-3-carboxamide]",,< 1 µM
"Cc1ccc(-n2nc(C3CCN(C4CCC(N(C)S(C)(=O)=O)CC4)CC3)cc2NC(=O)c2cnn3cccnc23)cc1 (centres unmarked) [Example 251, N-[3-(1-{4-[methyl(methylsulfonyl)amino]cyclohexyl}piperidin-4-yl)-1-(4-methylphenyl)-1H-pyrazol-5-yl]pyrazolo[1,5-a]pyrimidine-3-carboxamide]",< 0.1 µM,
"Cc1ccc(-n2nc(C3CCN(S(=O)(=O)c4cccc(F)c4)CC3)cc2NC(=O)c2cnn3cccnc23)cc1 [Example 379, N-[3-{1-[(3-fluorophenyl)sulfonyl]piperidin-4-yl}-1-(4-methylphenyl)-1H-pyrazol-5-yl]pyrazolo[1,5-a]pyrimidine-3-carboxamide]",,< 1 µM
"Cc1ccc(-n2nc(C3CCN(C4CCC4)CC3)cc2NC(=O)c2cnn3cccnc23)cc1 [Example 38, N-(3-(1-cyclobutylpiperidin-4-yl)-1-(p-tolyl)-1H-pyrazol-5-yl)pyrazolo[1,5-a]pyrimidine-3-carboxamide]",< 0.1 µM,
"Cc1ccc(-n2nc(C3CN(Cc4ccn[nH]4)C3)cc2NC(=O)c2cnn3cccnc23)cc1 [Example 306, N-{1-(4-methylphenyl)-3-[1-(1H-pyrazol-5-ylmethyl)azetidin-3-yl]-1H-pyrazol-5-yl}pyrazolo[1,5-a]pyrimidine-3-carboxamide]",,< 1 µM
"Cc1ccc(-n2nc(C3CN(Cc4ccncc4)C3)cc2NC(=O)c2cnn3cccnc23)cc1 [Example 309, N-{1-(4-methylphenyl)-3-[1-(pyridin-4-ylmethyl)azetidin-3-yl]-1H-pyrazol-5-yl}pyrazolo[1,5-a]pyrimidine-3-carboxamide]",,< 1 µM
"O=C(Nc1cc(C2CN(C3CCC3)C2)nn1-c1ccc(C2CC2)cc1F)c1cnn2cccnc12 [Example 89, N-(3-(1-cyclobutylazetidin-3-yl)-1-(4-cyclopropyl-2-fluorophenyl)-1H-pyrazol-5-yl)pyrazolo[1,5-a]pyrimidine-3-carboxamide]",< 0.1 µM,
"Cc1ccc(-n2nc(C3CN(S(C)(=O)=O)C3)cc2NC(=O)c2cnn3cccnc23)cc1 [Example 83, N-(3-(1-(methylsulfonyl)azetidin-3-yl)-1-(p-tolyl)-1H-pyrazol-5-yl)pyrazolo[1,5-a]pyrimidine-3-carboxamide]",,< 1 µM
"Cc1ccc(-n2nc(C3CCN(S(C)(=O)=O)CC3)cc2NC(=O)c2cnn3cccnc23)c(F)c1 [Example 57, N-(1-(2-fluoro-4-methylphenyl)-3-(1-(methylsulfonyl)piperidin-4-yl)-1H-pyrazol-5-yl)pyrazolo[1,5-a]pyrimidine-3-carboxamide]",< 0.1 µM,
"Cc1ccc(-n2nc(C3CCN(S(=O)(=O)c4ccccc4F)CC3)cc2NC(=O)c2cnn3cccnc23)cc1 [Example 378, N-[3-{1-[(2-fluorophenyl)sulfonyl]piperidin-4-yl}-1-(4-methylphenyl)-1H-pyrazol-5-yl]pyrazolo[1,5-a]pyrimidine-3-carboxamide]",,< 1 µM
"Cc1ccc(-n2nc(-c3cccnc3)cc2NC(=O)c2cnn3cccnc23)cc1 [Example 123, N-(3-(pyridin-3-yl)-1-(p-tolyl)-1H-pyrazol-5-yl)pyrazolo[1,5-a]pyrimidine-3-carboxamide]",< 0.1 µM,
"Cc1ccc(-n2nc(C3CCC(=NO)CC3)cc2NC(=O)c2cnn3cccnc23)cc1 (centres unmarked) [Example 2, N-(3-(4-(hydroxyimino)cyclohexyl)-1-(p-tolyl)-1H-pyrazol-5-yl)pyrazolo[1,5-a]pyrimidine-3-carboxamide]",,< 1 µM
"CC(=O)c1ccc(-n2nc(C3CCN(S(C)(=O)=O)CC3)cc2NC(=O)c2cnn3cccnc23)cc1 [Example 90, N-(1-(4-acetylphenyl)-3-(1-(methylsulfonyl)piperidin-4-yl)-1H-pyrazol-5-yl)pyrazolo[1,5-a]pyrimidine-3-carboxamide]",,< 1 µM

SMILES,IC50,IC50 (μM)
"COCCOC(=O)N1CC(N2CCC(c3cc(NC(=O)c4cnn5cccnc45)n(-c4ccc(C)cc4)n3)CC2)C1 [Example 242, 2-methoxyethyl 3-(4-{1-(4-methylphenyl)-5-[(pyrazolo[1,5-a]pyrimidin-3-ylcarbonyl)amino]-1H-pyrazol-3-yl}piperidin-1-yl)azetidine-1-carboxylate]",,< 1 µM
"Cc1ccc(-n2nc(C3CN(Cc4cnccn4)C3)cc2NC(=O)c2cnn3cccnc23)cc1 [Example 304, N-{1-(4-methylphenyl)-3-[1-(pyrazin-2-ylmethyl)azetidin-3-yl]-1H-pyrazol-5-yl}pyrazolo[1,5-a]pyrimidine-3-carboxamide]",,< 1 µM
"Cc1ccc(-n2nc(C3CCN(CC4CC4)CC3)cc2NC(=O)c2cnn3cccnc23)cc1 [Example 221, N-{3-[1-(cyclopropylmethyl)piperidin-4-yl]-1-(4-methylphenyl)-1H-pyrazol-5-yl}pyrazolo[1,5-a]pyrimidine-3-carboxamide]",< 0.1 µM,
"Cc1ccc(-n2nc(C3CCCN(Cc4cscn4)C3)cc2NC(=O)c2cnn3cccnc23)cc1 (centres unmarked) [Example 288, N-{1-(4-methylphenyl)-3-[1-(1,3-thiazol-4-ylmethyl)piperidin-3-yl]-1H-pyrazol-5-yl}pyrazolo[1,5-a]pyrimidine-3-carboxamide]",,< 1 µM
"Cc1ccc(-n2nc(C3CCN(Cc4cscn4)CC3)cc2NC(=O)c2cnn3cccnc23)cc1 [Example 231, N-{1-(4-methylphenyl)-3-[1-(1,3-thiazol-4-ylmethyl)piperidin-4-yl]-1H-pyrazol-5-yl}pyrazolo[1,5-a]pyrimidine-3-carboxamide]",< 0.1 µM,
"Cc1ccc(-n2nc(C3CCN(C4CCC4)CC3)cc2NC(=O)c2cnn3cccnc23)c(F)c1 [Example 59, N-(3-(1-cyclobutylpiperidin-4-yl)-1-(2-fluoro-4-methylphenyl)-1H-pyrazol-5-yl)pyrazolo[1,5-a]pyrimidine-3-carboxamide]",< 0.1 µM,
"[2H]C([2H])([2H])c1ccc(-n2nc(C3CCN(S(C)(=O)=O)CC3)cc2NC(=O)c2cnn3cccnc23)nc1 [Example 155, N-(1-(5-trideuteromethylpyridin-2-yl)-3-(1-(methylsulfonyl)piperidin-4-yl)-1H-pyrazol-5-yl)pyrazolo[1,5-a]pyrimidine-3-carboxamide]",< 0.1 µM,
"Cc1ccc(-n2nc(N3CCN(CC(C)C)CC3)cc2NC(=O)c2cnn3cccnc23)nc1 [Example 324, N-{3-[4-(2-methylpropyl)piperazin-1-yl]-1-(5-methylpyridin-2-yl)-1H-pyrazol-5-yl}pyrazolo[1,5-a]pyrimidine-3-carboxamide]",< 0.1 µM,
"COc1ccc(-n2nc(C3CCN(C(C)C)CC3)cc2NC(=O)c2cnn3cccnc23)cc1 [Example 47, N-(3-(1-isopropylpiperidin-4-yl)-1-(4-methoxyphenyl)-1H-pyrazol-5-yl)pyrazolo[1,5-a]pyrimidine-3-carboxamide]",< 0.1 µM,
"Cc1ccc(-n2nc(C3CCC(C(F)(F)F)CC3)cc2NC(=O)c2cnn3cccnc23)cc1 (centres unmarked) [Example 97, N-(1-(p-tolyl)-3-(4-(trifluoromethyl)cyclohexyl)-1H-pyrazol-5-yl)pyrazolo[1,5-a]pyrimidine-3-carboxamide]",,> 1 µM
"Cc1ccc(-n2nc(C3CCN(CC(C)C)CC3)cc2NC(=O)c2cnn3cccnc23)cc1 [Example 219, N-{1-(4-methylphenyl)-3-[1-(2-methylpropyl)piperidin-4-yl]-1H-pyrazol-5-yl}pyrazolo[1,5-a]pyrimidine-3-carboxamide]",< 0.1 µM,
"Cc1ccc(-n2nc(-c3ccc(S(=O)(=O)N4CCC4)cc3)cc2NC(=O)c2cnn3cccnc23)cc1 [Example 344, N-{3-[4-(azetidin-1-ylsulfonyl)phenyl]-1-(4-methylphenyl)-1H-pyrazol-5-yl}pyrazolo[1,5-a]pyrimidine-3-carboxamide]",< 0.1 µM,
"Cc1ccc(-n2nc(C3CCN(C(C)C)CC3)cc2NC(=O)c2cnn3cccnc23)c(Cl)c1 [Example 66, N-(1-(2-chloro-4-methylphenyl)-3-(1-isopropylpiperidin-4-yl)-1H-pyrazol-5-yl)pyrazolo[1,5-a]pyrimidine-3-carboxamide]",,< 1 µM
"COc1ccc(S(=O)(=O)N2CCC(c3cc(NC(=O)c4cnn5cccnc45)n(-c4ccc(C)cc4)n3)CC2)cn1 [Example 389, N-[3-{1-[(6-methoxypyridin-3-yl)sulfonyl]piperidin-4-yl}-1-(4-methylphenyl)-1H-pyrazol-5-yl]pyrazolo[1,5-a]pyrimidine-3-carboxamide]",,< 1 µM
"Cc1ccc(-n2nc(C3CNC3)cc2NC(=O)c2cnn3cccnc23)cc1 [Example 82, N-(3-(azetidin-3-yl)-1-(p-tolyl)-1H-pyrazol-5-yl)pyrazolo[1,5-a]pyrimidine-3-carboxamide]",,> 1 µM
Cc1ccc(-n2nc(C3CCN(S(=O)(=O)c4ccc(Cl)nc4)CC3)cc2NC(=O)c2cnn3cccnc23)cc1 [Example 382],,< 1 µM
